Patent US20080014186A1, “Hla-A24 or Hla-A2 Binding Peptides of Parathyroid Hormone-Related Protein” (GREEN PEPTIDE CO., LTD., priority 2004, published 2008)

Columns and labels:
[1] = tested on: PBMCs of HLA-A2^+ healthy donors and prostate cancer patients; assay: Assay for peptide-specific CTLs in PBMCs (IFN-γ ELISA, peptide-pulsed T2 cells); assay type: cell-based, human; conditions: for INF-γ production: T2 cells
[2] = tested on: IgG in plasma of HLA-A2^+ healthy donors and prostate cancer patients; assay: Peptide-specific IgG in plasma by ELISA (HLA-A2-binding PTHrP peptides); design: species or system human; conditions: for IgG reactive to the peptide in plasma (difference of OD): 1:100-diluted plasma
Protocol: Peptide-specific IgG levels in the plasma were measured by ELISA, as previously reported. In brief, peptide (20 μg/well)-immobilized plates were blocked with Block Ace (Yukijirushi, Tokyo, Japan) and washed with 0.05% Tween20-PBS, after which 100 μl/well of plasma sample diluted with 0.05% Tween20-Block Ace was added to the plate. After 2 hours incubation at 37° C., the plates were washed and further incubated for 2 hours with a 1:1000-diluted rabbit anti-human IgG (γ-chain-specific) (DAKO, Glostrup, Denmark). The plates were washed, and then 100 μl of 1:100-diluted goat anti-rabbit IgG-conjugated horseradish peroxidase (EnVision, DAKO) was added to each well, and the plates were then incubated at room temperature for 40 min. After the plates were washed once, 100 μl/well of tetramethyl benzidine substrate solution (KPL, Guildford, UK) was added, and the reaction was stopped by the addition of 1 M phosphoric acid. The values are shown as optical density (OD) units/ml, and responses to the HIV peptide were subtracted. IgG reactive to a corresponding PTHrP peptide was judged to be positive when the difference of the OD in 1:100-diluted plasma exceeded 0.05. The results that IgG reactive to either the PTHrP102-111 or the […] peptide was detected in 8 of 10 healthy donors and in 7 of 10 prostate cancers are shown in Table 2 hereinafter.
In a similar way to Example 3, it was examined whether IgGs reactive to peptides of PTHrP 42-51 and PTHrP 59-67 could be detected in the plasma of 10 healthy donors and 10 cancer patients. The cut-off value at 1:100-diluted plasma was ODO.054.

Sequence: IQDLRRRFFL [PTHrP 51-60]
- INF-γ production ([1]; HLA-A2^+ healthy donor #1 (A0201)): 0 pg/mL
- INF-γ production ([1]; HLA-A2^+ healthy donor #2 (A0201)): 79 pg/mL
- INF-γ production ([1]; HLA-A2^+ healthy donor #3 (A0201)): 0 pg/mL
- INF-γ production ([1]; HLA-A2^+ healthy donor #4 (A0201)): 314 pg/mL
- INF-γ production ([1]; HLA-A2^+ healthy donor #5 (A0206)): 0 pg/mL
- INF-γ production ([1]; HLA-A2^+ healthy donor #6 (A0206)): 46 pg/mL
- INF-γ production ([1]; HLA-A2^+ healthy donor #7 (A0206)): 0 pg/mL
- INF-γ production ([1]; HLA-A2^+ healthy donor #8 (A0206)): 16 pg/mL
- INF-γ production ([1]; HLA-A2^+ healthy donor #9 (A0206)): 0 pg/mL
- INF-γ production ([1]; HLA-A2^+ healthy donor #10 (A0207)): 14 pg/mL
- Total (donors with significant peptide-specific IFN-γ production / donors tested) ([1]; HLA-A2^+ healthy donors, p < 0.05): 2/10
- INF-γ production ([1]; HLA-A2^+ prostate cancer patient #1 (A0206)): 55 pg/mL
- INF-γ production ([1]; HLA-A2^+ prostate cancer patient #2 (A0210)): 187 pg/mL
- INF-γ production ([1]; HLA-A2^+ prostate cancer patient #3 (A0210)): 34 pg/mL
- INF-γ production ([1]; HLA-A2^+ prostate cancer patient #4 (A0206)): 33 pg/mL
- INF-γ production ([1]; HLA-A2^+ prostate cancer patient #5 (A0206)): 0 pg/mL
- INF-γ production ([1]; HLA-A2^+ prostate cancer patient #6 (A0207)): 0 pg/mL
- INF-γ production ([1]; HLA-A2^+ prostate cancer patient #7 (A0206)): 0 pg/mL
- INF-γ production ([1]; HLA-A2^+ prostate cancer patient #8 (A0206)): 2 pg/mL
- INF-γ production ([1]; HLA-A2^+ prostate cancer patient #9 (A0201)): 67 pg/mL
- INF-γ production ([1]; HLA-A2^+ prostate cancer patient #10 (A0201)): 21 pg/mL
- Total (patients with significant peptide-specific IFN-γ production / patients tested) ([1]; HLA-A2^+ prostate cancer patients, p < 0.05): 2/10
- IgG reactive to the peptide in plasma (difference of OD) ([2]; HLA-A2^+ healthy donor #1): 0.0945 OD
- IgG reactive to the peptide in plasma (difference of OD) ([2]; HLA-A2^+ healthy donor #2): 0.1338 OD
- IgG reactive to the peptide in plasma (difference of OD) ([2]; HLA-A2^+ healthy donor #3): — (IgG reactive to a corresponding peptide was judged to be positive when a difference of OD in a 1:100-diluted plasma was more than 0.054.)
- IgG reactive to the peptide in plasma (difference of OD) ([2]; HLA-A2^+ healthy donor #4): — (IgG reactive to a corresponding peptide was judged to be positive when a difference of OD in a 1:100-diluted plasma was more than 0.054.)
- IgG reactive to the peptide in plasma (difference of OD) ([2]; HLA-A2^+ healthy donor #5): — (IgG reactive to a corresponding peptide was judged to be positive when a difference of OD in a 1:100-diluted plasma was more than 0.054.)
- IgG reactive to the peptide in plasma (difference of OD) ([2]; HLA-A2^+ healthy donor #6): — (IgG reactive to a corresponding peptide was judged to be positive when a difference of OD in a 1:100-diluted plasma was more than 0.054.)
- IgG reactive to the peptide in plasma (difference of OD) ([2]; HLA-A2^+ healthy donor #7): 0.0675 OD
- IgG reactive to the peptide in plasma (difference of OD) ([2]; HLA-A2^+ healthy donor #8): — (IgG reactive to a corresponding peptide was judged to be positive when a difference of OD in a 1:100-diluted plasma was more than 0.054.)
- IgG reactive to the peptide in plasma (difference of OD) ([2]; HLA-A2^+ healthy donor #9): — (IgG reactive to a corresponding peptide was judged to be positive when a difference of OD in a 1:100-diluted plasma was more than 0.054.)
- IgG reactive to the peptide in plasma (difference of OD) ([2]; HLA-A2^+ healthy donor #10): — (IgG reactive to a corresponding peptide was judged to be positive when a difference of OD in a 1:100-diluted plasma was more than 0.054.)
- Total (IgG-positive donors / donors tested) ([2]; HLA-A2^+ healthy donors): 3/10
- IgG reactive to the peptide in plasma (difference of OD) ([2]; HLA-A2^+ prostate cancer patient #1): — (IgG reactive to a corresponding peptide was judged to be positive when a difference of OD in a 1:100-diluted plasma was more than 0.054.)
- IgG reactive to the peptide in plasma (difference of OD) ([2]; HLA-A2^+ prostate cancer patient #2): — (IgG reactive to a corresponding peptide was judged to be positive when a difference of OD in a 1:100-diluted plasma was more than 0.054.)
- IgG reactive to the peptide in plasma (difference of OD) ([2]; HLA-A2^+ prostate cancer patient #3): 0.0675 OD
- IgG reactive to the peptide in plasma (difference of OD) ([2]; HLA-A2^+ prostate cancer patient #4): — (IgG reactive to a corresponding peptide was judged to be positive when a difference of OD in a 1:100-diluted plasma was more than 0.054.)
- IgG reactive to the peptide in plasma (difference of OD) ([2]; HLA-A2^+ prostate cancer patient #5): — (IgG reactive to a corresponding peptide was judged to be positive when a difference of OD in a 1:100-diluted plasma was more than 0.054.)
- IgG reactive to the peptide in plasma (difference of OD) ([2]; HLA-A2^+ prostate cancer patient #6): — (IgG reactive to a corresponding peptide was judged to be positive when a difference of OD in a 1:100-diluted plasma was more than 0.054.)
- IgG reactive to the peptide in plasma (difference of OD) ([2]; HLA-A2^+ prostate cancer patient #7): — (IgG reactive to a corresponding peptide was judged to be positive when a difference of OD in a 1:100-diluted plasma was more than 0.054.)
- IgG reactive to the peptide in plasma (difference of OD) ([2]; HLA-A2^+ prostate cancer patient #8): — (IgG reactive to a corresponding peptide was judged to be positive when a difference of OD in a 1:100-diluted plasma was more than 0.054.)
- IgG reactive to the peptide in plasma (difference of OD) ([2]; HLA-A2^+ prostate cancer patient #9): — (IgG reactive to a corresponding peptide was judged to be positive when a difference of OD in a 1:100-diluted plasma was more than 0.054.)
- IgG reactive to the peptide in plasma (difference of OD) ([2]; HLA-A2^+ prostate cancer patient #10): 0.0995 OD
- Total (IgG-positive patients / patients tested) ([2]; HLA-A2^+ prostate cancer patients): 2/10
